Biological target: T1, Φ11 dUTPase (Φ11DUT) (Staphylococcus phage phi 11, UniProt Q8SDV3)
T1 construct: tag-free, expressed from pETDuet-1; Q-sepharose and Superdex 75; homotrimer
Test: phenol red proton release assay, […] nm
Type: biochemical
Conditions: 30 μM dUTP, 10 nM enzyme, 1 mM Hepes pH 7.5, 5 mM MgCl2, 150 mM KCl, 293 K

O=c1ccn([C@H]2C[C@H](O)[C@@H](COP(=O)(O)OP(=O)(O)OP(=O)(O)O)O2)c(=O)[nH]1 [dUTP]
phenol red proton release assay, 559 nm: Proton release during the transformation of dUTP into dUMP and PPi was followed continuously
